Test results as given in PubChem BioAssay (NCI).
Several values for one entry are separate records, joined by “and”; a condition that tells them apart may be missing. Equal values may be shown once.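 A five-concentration, 48-hour dose response in 96-well plates underlies each endpoint, interpolated linearly between surrounding concentrations. At the GI50, growth is halved. The concentration for full growth arrest is given as TGI.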

How the values were obtained:
Test in all cases: DTP human tumour cell line panel, 48 h
HOP-62 NSCLC = system: HOP-62 NSCLC
SF-295 CNS = system: SF-295 CNS
NCI-H460 lung = system: NCI-H460 lung
M14 melanoma = system: M14 melanoma
SNB-75 CNS = system: SNB-75 CNS
LOX IMVI melanoma = system: LOX IMVI melanoma
KM12 colon = system: KM12 colon
HS 578T breast = system: HS 578T breast
IGROV1 ovarian = system: IGROV1 ovarian
HOP-92 NSCLC = system: HOP-92 NSCLC

Row | Compound | TGI (HOP-62 NSCLC) | GI50 (SF-295 CNS) | TGI (SF-295 CNS) | TGI (NCI-H460 lung) | TGI (M14 melanoma) | GI50 (SNB-75 CNS) | TGI (SNB-75 CNS) | TGI (LOX IMVI melanoma) | GI50 (KM12 colon) | TGI (KM12 colon) | GI50 (HOP-62 NSCLC) | GI50 (NCI-H460 lung) | GI50 (M14 melanoma) | GI50 (LOX IMVI melanoma) | GI50 (HS 578T breast) | TGI (HS 578T breast) | GI50 (IGROV1 ovarian) | TGI (IGROV1 ovarian) | TGI (HOP-92 NSCLC)
1 | COc1cc(Nc2nc3ccccc3nc2NS(=O)(=O)c2ccc(NC(=O)c3ccc(C)c(OC)c3)cc2)cc(OC)c1 | 25.9 µM and > 100 µM and > 9.23 µM | 2.03 µM and 8.73 µM and 1.08 µM | 9.85 µM and 33.6 µM and > 5.22 µM | > 100 µM | > 100 µM and 94 µM and > 4.68 µM | 1.39 µM and 1.51 µM and 0.302 µM | 13.3 µM and 20 µM and 2.75 µM | > 100 µM | 3.62 µM and 20 µM and 2.35 µM | > 100 µM | – | – | – | – | – | – | – | – | –
2 | O=C1NC(=O)C(c2ccccc2Cl)=C1Nc1cc(Cl)c(O)c(Cl)c1 | > 25 µM | > 25 µM | > 25 µM | > 25 µM | > 25 µM | > 13 µM | > 25 µM | > 25 µM | 12 µM | > 25 µM | 14.5 µM | > 25 µM | > 19.5 µM | 11.3 µM | 10.9 µM | > 25 µM | > 25 µM | > 25 µM | –
3 | O=C(O)Cc1cc(=O)[nH]c2c1/C(=N/O)CCC2 | – | – | > 100 µM | > 100 µM | > 100 µM | – | – | – | – | > 100 µM | – | – | – | – | – | – | – | > 100 µM | > 100 µM
4 | O=C(Nc1ccc(Cl)cc1Cl)C1C(=O)C(=O)N(c2ccc(Cl)cc2Cl)C1=O (stereo not drawn) | > 100 µM | – | – | > 100 µM | > 100 µM | – | > 100 µM | > 100 µM | – | > 100 µM | – | – | – | – | – | – | – | > 100 µM | –
5 | CC(=O)CC(N)=O | > 100 µM | – | > 100 µM | > 100 µM | > 100 µM | – | > 100 µM | – | – | > 100 µM | – | – | – | – | – | – | – | > 100 µM | > 100 µM
6 | COc1ccc(NC(=O)CC/C(CC(=O)C(C)(C)C)=N\NC(=O)C(=O)NN)cc1 | > 100 µM | – | > 100 µM | > 100 µM | > 100 µM | – | > 100 µM | > 100 µM | – | > 100 µM | – | – | – | – | – | – | – | > 100 µM | > 100 µM
7 | C=C(C#N)C1OCC2OC(C)(C)OC21 (stereo not drawn) | > 100 µM | – | > 100 µM | 57.4 µM | 30.5 µM | – | 35.9 µM | 30.4 µM | – | > 100 µM | – | – | – | – | – | – | – | > 100 µM | 43.3 µM
8 | CCOC(=O)/C(=C\c1ccc(N(CCC#N)CCC#N)cc1)NC(=O)c1cc([N+](=O)[O-])ccc1Cl | > 100 µM | – | > 100 µM | > 100 µM | > 100 µM | – | > 100 µM | > 100 µM | – | > 100 µM | – | – | – | – | – | – | – | > 100 µM | –
9 | COc1ccc(/C(=N\NC(=O)C(=O)NN)C(c2ccc(OC)cc2)C2(O)C(=O)Nc3ccccc32)cc1 (stereo not drawn) | > 100 µM | – | – | > 100 µM | > 100 µM | – | > 100 µM | – | – | > 100 µM | – | – | – | – | – | – | – | > 100 µM | > 100 µM
10 | COC(=O)C1=C(O)c2cc(-c3ccccc3)c(-c3ccccc3)c(C#N)c2NC(=O)C1 | 96.8 µM | – | 42.1 µM | > 100 µM | > 100 µM | – | 93.3 µM | – | – | > 100 µM | – | – | – | – | – | – | – | 4.74 µM | –
11 | Cc1cccc(C)c1CO | > 100 µM | – | > 100 µM | > 100 µM | > 100 µM | – | > 100 µM | > 100 µM | – | > 100 µM | – | – | – | – | – | – | – | > 100 µM | > 100 µM
